Calls of active or inactive are those of the source. The rule behind the calls is not given here.
Key:
[1] = Metabolic stability in human liver microsomes assessed as half life at 1 uM preincubated for 5 mins followed by NADPH addition and measured upto 60 min by LC-MS/MS analysis; assay type: ADME, Microsome; settings: time < 65 min
[2] = Metabolic stability in human liver microsomes assessed as parent compound remaining at 1 uM measured upto 60 min in presence of NADPH by LC-MS/MS analysis; assay type: ADME, Microsome; settings: read-out: Stability
Hepatitis B virus [3] = assay: Antiviral activity against HBV infected in human HepG2.2.15 cells assessed as inhibition of HBV DNA incubated for 6 days with replacement of fresh media for every 72 hrs by real-time qPCR analysis; assay type: functional, organism-based
Hepatitis B virus [4] = assay: Antiviral activity against HBV infected in human HepG2.2.15 cells assessed as inhibition of HBsAg level incubated for 6 days with replacement of fresh media for every 72 hrs by real-time qPCR analysis; assay type: functional, organism-based
[5] = Metabolic stability in mouse liver microsomes assessed as half life at 1 uM preincubated for 5 mins followed by NADPH addition and measured upto 60 min by LC-MS/MS analysis; assay type: ADME, Microsome; settings: time < 65 min
[6] = Metabolic stability in mouse liver microsomes assessed as intrinsic clearance at 1 uM preincubated for 5 mins followed by NADPH addition and measured upto 60 min by LC-MS/MS analysis; assay type: ADME, Microsome; settings: time < 65 min, read-out: CLH
[7] = Metabolic stability in mouse liver microsomes assessed as parent compound remaining at 1 uM measured upto 60 min in presence of NADPH by LC-MS/MS analysis; assay type: ADME, Microsome; settings: read-out: Stability
[8] = AUC (0 to t) in ICR mouse at 1 mg/kg, iv by UPLC-MS/MS analysis; assay type: ADME, organism-based; set-up: dose 1 mg/kg, route iv; settings: in vivo
[9] = AUC (0 to infinity) in ICR mouse at 1 mg/kg, iv by UPLC-MS/MS analysis; assay type: ADME, organism-based; set-up: dose 1 mg/kg, route iv; settings: in vivo
[10] = Half life in ICR mouse at 1 mg/kg, iv by UPLC-MS/MS analysis; assay type: ADME, organism-based; settings: in vivo
[11] = Volume of distribution at steady state in ICR mouse at 1 mg/kg, iv by UPLC-MS/MS analysis; assay type: ADME, organism-based; settings: in vivo, read-out: Vdss
[12] = Clearance in ICR mouse at 1 mg/kg, iv by UPLC-MS/MS analysis; assay type: ADME, organism-based; settings: in vivo
[13] = Bioavailability in ICR mouse at 1 mg/kg, iv by UPLC-MS/MS analysis; assay type: ADME, organism-based; settings: in vivo
[14] = AUC (0 to t) in ICR mouse at 10 mg/kg, IG by UPLC-MS/MS analysis; assay type: ADME, organism-based; set-up: dose 10 mg/kg, route ig; settings: in vivo, po
[15] = AUC (0 to infinity) in ICR mouse at 10 mg/kg, IG by UPLC-MS/MS analysis; assay type: ADME, organism-based; set-up: dose 10 mg/kg, route ig; settings: in vivo, po
[16] = Half life in ICR mouse at 10 mg/kg, IG by UPLC-MS/MS analysis; assay type: ADME, organism-based; settings: in vivo, po
[17] = Tmax in ICR mouse at 10 mg/kg, IG by UPLC-MS/MS analysis; assay type: ADME, organism-based; settings: in vivo, po
[18] = Cmax in ICR mouse at 10 mg/kg, IG by UPLC-MS/MS analysis; assay type: ADME, organism-based; set-up: dose 10 mg/kg, route ig; settings: in vivo, po
HepG2 2.2.15 = assay: Cytotoxicity against human HepG2.2.15 cells by CCK-8 method; assay type: functional
Hepatitis B virus [19] = assay: In vivo antiviral activity against HBV infected in uPA/SCID mouse assessed as reduction in serum HBsAg level at 10 mg/kg, po administered twice daily for 21 days and measured upto 35 days; assay type: functional; settings: time <= 35 day
Hepatitis B virus [20] = assay: In vivo antiviral activity against HBV infected in uPA/SCID mouse assessed as reduction in serum HBsAg level at 10 mg/kg, po administered twice daily for 28 days; assay type: functional, organism-based; settings: time 28.0 day
[21] = Metabolic stability in human liver microsomes assessed as intrinsic clearance at 1 uM preincubated for 5 mins followed by NADPH addition and measured upto 60 min by LC-MS/MS analysis; assay type: ADME, Microsome; settings: time < 65 min, read-out: CLH

SMILES | half-life at 1 µM [1] [h] | remaining at 1 h, 1 µM [2] [%] | EC50 (Hepatitis B virus [3]) [nM] | EC50 (Hepatitis B virus [4]) [nM] | further results
COc1cc(N2[C@H]3CC[C@@H]2c2cnc(-c4ncccn4)nc2C3)cc(F)c1F | > 3.33 | 99.1 | 169 | 443 | –
Fc1cc(N2CC(F)C2)cc(N2[C@@H]3CCC[C@H]2c2cnc(-c4ccccn4)nc2C3)n1 (single isomer, unassigned) | – | – | > 10000 | > 10000 | –
Fc1cc(NCC2CC2)cc(N2[C@H]3CC[C@@H]2c2cnc(-c4ncccn4)nc2C3)n1 | – | – | 105 | 106 | –
COCCNc1cc(F)nc(N2[C@H]3CC[C@@H]2c2cnc(-c4ncccn4)nc2C3)c1 | – | – | 111 | 94 | –
CN(C)c1cc(F)nc(N2[C@H]3CC[C@@H]2c2cnc(-c4ncccn4)nc2C3)c1 | > 3.33 | 86.2 | 34 | 41 | half-life at 1 µM [5]: 1.63 h; CLint scaled at 1 µM [6]: 56.2 mL/min/kg; remaining at 1 h, 1 µM [7]: 63.9%
COc1cc(F)nc(N2[C@@H]3CCC[C@H]2c2cnc(-c4ncccn4)nc2C3)c1 (single isomer, unassigned) | – | – | 15 | 26 | –
COCCCOc1cc2c(cc1OC)-c1cc(=O)c(C(=O)O)cn1[C@H](C(C)C)C2 | – | – | 1 | 6 | AUC(0-t) [8]: 346 ng·h/mL; AUC(0-inf) [9]: 349 ng·h/mL; half-life [10]: 0.653 h; Vd [11]: 2.7 L/kg; clearance [12]: 47.8 mL/min/kg; bioavailability [13]: 88.6%; AUC(0-t) [14]: 3060 ng·h/mL; AUC(0-inf) [15]: 3080 ng·h/mL; half-life [16]: 1.12 h; Tmax [17]: 0.25 h; Cmax [18]: 1100 ng/mL
CS(=O)(=O)N1CCN(c2cc(F)nc(N3[C@@H]4CCC[C@H]3c3cnc(-c5ncccn5)nc3C4)c2)CC1 (single isomer, unassigned) | > 3.33 | 94 | 75 | 25 | half-life at 1 µM [5]: > 3.33 h; remaining at 1 h, 1 µM [7]: 85.7%
COCCN(C)c1cc(F)nc(N2[C@H]3CC[C@@H]2c2cnc(-c4ncccn4)nc2C3)c1 | – | – | 21 | 31 | –
Fc1cc(N2CCOCC2)cc(N2[C@H]3CC[C@@H]2c2cnc(-c4ncccn4)nc2C3)n1 | – | – | 39 | 54 | –
COC1CCN(c2cc(F)nc(N3[C@H]4CC[C@@H]3c3cnc(-c5ncccn5)nc3C4)c2)C1 (some centres undefined) | – | – | 189 | 193 | –
COCCN(C)c1cc(F)nc(N2C[C@H]3CC[C@@H]2c2cnc(-c4ncccn4)nc23)c1 | – | – | 154 | 244 | –
CN(C)c1cc(F)nc(N2[C@@H]3CCC[C@H]2c2cnc(-c4ccccn4)nc2C3)c1 (single isomer, unassigned) | – | – | > 10000 | > 10000 | –
Fc1cc(N2CC(F)C2)cc(N2[C@H]3CC[C@@H]2c2cnc(-c4ncccn4)nc2C3)n1 | > 3.33 | 99.7 | 18 | 44 | AUC(0-t) [8]: 3410 ng·h/mL; CC50 (HepG2 2.2.15): > 100000 nM; AUC(0-inf) [9]: 3410 ng·h/mL; half-life [10]: 1.16 h; Vd [11]: 0.49 L/kg; clearance [12]: 4.88 mL/min/kg; bioavailability [13]: 80.2%; AUC(0-t) [14]: 27400 ng·h/mL; AUC(0-inf) [15]: 27400 ng·h/mL; half-life [16]: 1.23 h; Tmax [17]: 0.25 h; Cmax [18]: 9580 ng/mL; Activity (Hepatitis B virus [19]): 1.08 log10/ml; Activity (Hepatitis B virus [20]): Active
COCCOc1cc(F)nc(N2[C@H]3CC[C@@H]2c2cnc(-c4ncccn4)nc2C3)c1 | – | – | 44 | 73 | –
CN(C)c1cc(F)nc(N2[C@@H]3CCC[C@H]2c2cnc(-c4ncccn4)nc2C3)c1 (single isomer, unassigned) | 1.93 | 69 | 2 | 14 | AUC(0-t) [8]: 2480 ng·h/mL; CLint scaled at 1 µM [21]: 10.7 mL/min/kg; half-life at 1 µM [5]: 1.12 h; CLint scaled at 1 µM [6]: 81.4 mL/min/kg; remaining at 1 h, 1 µM [7]: 52.4%; AUC(0-inf) [9]: 2490 ng·h/mL; half-life [10]: 1.65 h; Vd [11]: 0.96 L/kg; clearance [12]: 6.67 mL/min/kg; bioavailability [13]: 125%; AUC(0-t) [14]: 31000 ng·h/mL; AUC(0-inf) [15]: 31900 ng·h/mL; half-life [16]: 1.95 h; Tmax [17]: 0.5 h; Cmax [18]: 9900 ng/mL; Activity (Hepatitis B virus [19]): 0.74 log10/ml
Fc1cc(N2CC(F)C2)cc(N2[C@@H]3CCC[C@H]2c2cnc(-c4ncccn4)nc2C3)n1 (single isomer, unassigned) | – | – | 7 | 12 | –
CN(C)c1cc(N2[C@H]3CC[C@@H]2c2cnc(-c4ncccn4)nc2C3)cc(F)n1 | – | – | 89 | 2450 | –
COCCN(C)c1cc(F)nc(N2C[C@@H]3CC[C@H]2c2cnc(-c4ncccn4)nc23)c1 | – | – | 1090 | > 10000 | –
COC1CN(c2cc(F)nc(N3[C@H]4CC[C@@H]3c3cnc(-c5ncccn5)nc3C4)c2)C1 | > 3.33 | 105 | 31 | 116 | –
COC1CN(c2cc(F)nc(N3[C@@H]4CCC[C@H]3c3cnc(-c5ncccn5)nc3C4)c2)C1 (single isomer, unassigned) | > 3.33 | 92.3 | 16 | 16 | half-life at 1 µM [5]: > 3.33 h; remaining at 1 h, 1 µM [7]: 80.4%
